From EP0830136B1, “NEW CRY[…] […]” (priority 1995, dated 1996)
pIC50: −log10 of the molar value. “Also recorded” adds a separate entry of the source.

Key:
[1] = pH 11 / hydrolysis
[2] = system: human tumor cell lines KB and LoVo; assay: In vitro cytotoxicity, KB and LoVo; conditions: read-out: cytotoxicities IC50's
SKOV3 cells = assay: Cell proliferation assay (SRB staining), SKOV3; assay type: cell-based, Human; conditions: 24 hours with IC50 doses
SKVLB1 cells = assay: cells; assay type: cell-based; conditions: Homo sapiens, SKVLB1, 48 h, read-out: SKVLB1 IC50 (nM)
Protocol: The Jurkat T cell leukemia line and A-10 rat aortic smooth muscle cells were obtained from the American Type Culture Collection and were cultured in BME containing 10% FBS and 50µg/mL gentamycin sulfate. […] Both cell lines were maintained in BME containing 10% FBS and 50µg/mL gentamycin sulfate.
Cell proliferation assays were performed as described by Skehan et al.^11 For Jurkat cells, cultures were treated with the indicated drugs as described in Skehan^11 and total cell numbers were determined by counting the cells in a hemacytometer. The percentage of cells in mitosis was determined by staining with 0.4% Giemsa in PBS followed by three rapid washes with PBS. At least 1000 cells per treatment were scored for the presence of mitotic figures and the mitotic index was calculated as the ratio of cells with mitotic figures to the total number of cells counted.

[3] = system: Jurkat T cell leukemia line; assay: Jurkat cell proliferation and mitotic index; assay type: cell-based; conditions: Homo sapiens; Jurkat cells, 24 hours; read-out: IC50s for inhibition of cell proliferation and accumulation of cells in mitosis
[4] = system: A-10 rat aortic smooth muscle cells; assay: Immunofluorescence of cytoskeleton in A-10 cells; assay type: cell-based
Protocol: A-10 cells were grown to near-confluency on glass coverslips in BME/10% FBS. Compounds in PBS were added to the indicated final concentrations and cells were incubated for an additional 24 hours. For the staining of microtubules and intermediate filaments, the cells were fixed with cold methanol and incubated with PBS containing 10% calf serum to block nonspecific binding sites. Cells were then incubated at 37°C for 60 min with either monoclonal anti-β-tubulin or with monoclonal anti-vimentin at dilutions recommended by the manufacturer. Bound primary antibodies were subsequently visualized by a 45-minute incubation with fluorescein-conjugated rabbit antimouse IgG. The coverslips were mounted on microscope slides and the fluorescence patterns were examined and photographed using a Zeiss Photomicroscope ill equipped with epifluorescence optics for fluorescein. […] PBS containing 100nM TRITC-phalloidin was then added and the mixture was allowed to incubate for 45 min at 37° C. The cells were washed rapidly three times with PBS before the coverslips were mounted and immediately photographed as described above.

[5] = A-10 cells, 24 hours, 2µM cytochalasin B, 100nM vinblastine or 10nM cryptophycin compounds

Structure (SMILES)	stability of the C-D ester bond [1]	total dosage required in vivo relative to comparator (tumors implanted in mice; mouse, in vivo)	in vivo antitumor activity (tumors implanted in mice; statement in words)	pIC50 [2]	increase in cell number during treatment (SKOV3 cells) [%]	increase in cell numbers in the 24 hours following removal of the drug (SKOV3 cells; then drug-free medium)	IC50 (SKVLB1 cells) [nM]	pIC50 [3]	microtubule depolymerization after taxol pretreatment [4]	microtubule repolymerization 1 hour after removal of drug ([4]; A-10 cells, 100nM vinblastine or 10nM cryptophycins for 24 hr, then drug-free medium 1 hour)	microtubule repolymerization 24 hours after removal of drug ([4]; A-10 cells, 100nM vinblastine or 10nM cryptophycins for 24 hr, then drug-free medium 24 hours)	effect on microfilaments [4, 5]	effect on microtubules [4, 5]	effect on vimentin intermediate filaments [4, 5]
COc1ccc(C[C@H]2NC(=O)/C=C/C[C@@H]([C@H](C)[C@H]3O[C@@H]3c3ccccc3)OC(=O)[C@H](CC(C)C)OC(=O)C(C)(C)CNC2=O)cc1Cl [Cryptophycin 52]	stable at pH 11	roughly three times the total dosage compared with Cryptophycin 1	active in vivo	10.15 to 10.37										
CC[C@]1(O)C[C@@H]2CN(CCc3c([nH]c4ccccc34)[C@@](C(=O)OC)(c3cc4c(cc3OC)N(C)[C@H]3[C@@](O)(C(=O)OC)[C@H](OC(C)=O)[C@]5(CC)C=CCN6CC[C@]43[C@@H]65)C2)C1 [vinblastine]					25	approximately 3 fold	4200	8.10	pretreatment with taxol prevented microtubule depolymerization	significant levels of microtubules	complete morphological recovery	Neither compound affected microfilawent organization	marked depletion of microtubules; also recorded: complete depolymerization of microtubules; also recorded: complete microtubule depolymerization	collapsed, forming concentric rings around the nuclei
